1 compound from patent US20170196859A1, “PHARMACEUTICAL COMPOSITION COMPRISING PYRAZINE CARBOXAMIDE COMPOUND AS ACTIVE INGREDIENT” (Astellas Pharma Inc., priority 2014, published 2017) can be followed below.

pIC50: −log10 of the molar value.

A word on the pIC50: it is −log10 of the IC50, conventionally taken in molar units. One may read the GI50 as the concentration that inhibits growth by half. A high value points to less potent growth inhibition.

Assay [1] concerns human acute myeloid leukemia cell line KG-1 cells. The experiment in a line: Proliferation inhibition, KG-1 cells (CellTiter-Glo). Type of assay: cell-based. To be noted: KG-1, 72 h, 3 days culture. How it is done: KG-1 is a cell line originated from human acute myeloid leukemia and the BTK expression has been confirmed (J. Immunol. 1994; 152(2):557-565). The human acute myeloid leukemia cell line KG-1 cells (American Type Culture Collection, CCL-246) cultured in RPMI1640 medium (Sigma) containing 10% bovine serum were seeded into 96 well plates. On the next day, DMSO solutions of the test compound B at final concentrations from 1 nM to 10 μM or only DMSO (DMSO group) were added thereto to culture the cells at 37° C. in 5% CO2 for 3 days. Thereafter, the cell number was measured using a cell counting reagent (CellTiter-Glo (registered trademark) Luminescent Cell Viability Assay (Promega)). The cell proliferation inhibition rate was calculated as the measured value in the DMSO group set as 0% inhibition and the measured value in the well only with the medium on which the cells have not been seeded set as 100% inhibition.
On the technique in general: ATP-based viability assays read luminescence as a measure of living cells.

Assay [2] concerns human diffuse large B-cell lymphoma cell line OCI-Ly10 cells. Briefly: Proliferation inhibition, OCI-Ly10 cells (CellTiter-Glo). Type of assay: cell-based. To be noted: OCI-Ly10, 72 h, 3 days culture, 100% inhibition = value on day of cell seeding. How it is done: OCI-Ly10 is a cell line originated from human diffuse large B-cell lymphoma, which is a B-cell malignant neoplasm, and the BTK dependency has been confirmed (Nature. 2010; 463:88-92). The human diffuse large B-cell lymphoma cell line OCI-Ly 10 cells (University Health Network) cultured in an Iscove's Modified Dulbecco's Medium (Sigma) containing a 20% bovine serum were seeded into 96 well plates. On the same day, DMSO solutions of the test compound B at a final concentrations from 0.1 nM to 1 μM or only DMSO (DMSO group) were added thereto to culture the cells at 37° C. in 5% CO2 for 3 days. Thereafter, the cell number was measured using a cell counting reagent (CellTiter-Glo (registered trademark) Luminescent Cell Viability Assay (Promega)). The cell proliferation inhibition rate was calculated by the measured value in the DMSO group set as 0% inhibition and the measured value in the DMSO group on day of cell seeding set as 100% inhibition.

In assay [3] the target is T1, JAK3 kinase (Homo sapiens, UniProt P52333).
T1 construct: purchased Carna Bioscience QSS Assist JAK3_MSA kit
T1 sequence (P52333 1-1124): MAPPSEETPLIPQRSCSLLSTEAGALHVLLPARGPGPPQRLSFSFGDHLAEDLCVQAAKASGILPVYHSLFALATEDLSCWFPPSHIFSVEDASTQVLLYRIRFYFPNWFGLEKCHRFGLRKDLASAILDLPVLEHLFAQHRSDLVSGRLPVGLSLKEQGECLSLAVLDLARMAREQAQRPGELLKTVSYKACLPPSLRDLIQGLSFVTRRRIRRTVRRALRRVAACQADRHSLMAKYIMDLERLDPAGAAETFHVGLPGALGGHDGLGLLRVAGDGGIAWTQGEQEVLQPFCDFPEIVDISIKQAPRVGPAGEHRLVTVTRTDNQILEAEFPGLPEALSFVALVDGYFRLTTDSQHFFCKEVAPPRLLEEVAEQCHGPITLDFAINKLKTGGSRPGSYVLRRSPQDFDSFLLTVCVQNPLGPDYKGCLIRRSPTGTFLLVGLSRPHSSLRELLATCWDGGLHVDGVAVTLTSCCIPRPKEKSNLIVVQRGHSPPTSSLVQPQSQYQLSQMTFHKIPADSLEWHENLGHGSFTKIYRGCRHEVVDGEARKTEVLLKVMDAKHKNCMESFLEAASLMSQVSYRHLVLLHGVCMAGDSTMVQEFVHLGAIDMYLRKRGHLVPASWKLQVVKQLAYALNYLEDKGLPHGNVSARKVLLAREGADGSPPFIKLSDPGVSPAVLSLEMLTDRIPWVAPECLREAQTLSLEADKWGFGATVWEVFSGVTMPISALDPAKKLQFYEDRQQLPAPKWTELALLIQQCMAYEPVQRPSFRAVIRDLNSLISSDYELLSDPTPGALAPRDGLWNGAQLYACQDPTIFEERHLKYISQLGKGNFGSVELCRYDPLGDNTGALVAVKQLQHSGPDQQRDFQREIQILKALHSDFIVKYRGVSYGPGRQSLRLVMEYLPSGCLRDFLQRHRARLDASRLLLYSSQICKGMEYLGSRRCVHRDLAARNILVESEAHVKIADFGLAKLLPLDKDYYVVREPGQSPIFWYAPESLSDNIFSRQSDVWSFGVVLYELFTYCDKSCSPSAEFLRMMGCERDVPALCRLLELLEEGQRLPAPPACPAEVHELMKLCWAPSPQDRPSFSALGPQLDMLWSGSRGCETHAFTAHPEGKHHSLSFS
The experiment in a line: JAK3 kinase inhibitory activity (QSS Assist JAK3_MSA kit). To be noted: 30 min preincubation, ATP 1 mM. Type of assay: biochemical. How it is done: The JAK3 kinase inhibitory activity was evaluated using QSS Assist JAK3_MSA kit (Carna Bioscience).
The test compound B was dissolved in dimethyl sulfoxide (DMSO) to prepare a solution at a 100-fold concentration as compared to the test concentration. The solution was also 25-fold diluted with an appurtenant assay buffer to obtain a test compound B solution. In addition, JAK3 kinase appurtenant to the kit was used for the reaction.
5 μL of the test compound B solution at a 4-fold concentration, prepared using the aforementioned assay buffer, and 10 μL of a JAK3 kinase solution at a 2-fold concentration were mixed within a well of a 384 well plate, and incubated at room temperature for 30 minutes. Continuously, 5 μL of a substrate peptide/ATP/MgCl2 solution at a 4-fold concentration was added thereto to perform the reaction at room temperature for 1 hour. The substrate peptide was used at a final concentration of 1 μM, ATP at a final concentration of 1 mM, and MgCl2 at a final concentration of 5 mM. Thereafter, 60 μL of an appurtenant termination buffer was added thereto to stop the reaction. The JAK3 kinase activity was calculated by quantifying a product conversion ratio obtained from the substrate peptide peak height and the product (phosphorylated substrate peptide) peak height with LabChip EZ Reader II (PerkinElmer). […]

For the compound `C=CC(=O)N1CC[C@@H](Oc2nc(Nc3ccc(N4CCC(N5CCN(C)CC5)CC4)cc3)c(C(N)=O)nc2CC)C1` [test compound B, 5-{[(3R)-1-acryloylpyrrolidin-3-yl]oxy}-6-ethyl-3-({4-[4-(4-methylpiperazin-1-yl)piperidin-1-yl]phenyl}amino)pyrazine-2-carboxamide monomethanesulfonate], the values for the pIC50 in assay [1] and in assay [3] were 7.42 and 9.36, respectively. Also, in assay [2], halving of growth (GI50) required 1 nM.
